Results as given in patent US20250197864A1, “LNCRNA TRANSCRIPTS IN MELANOMAGENESIS” (The Regents of the University of California, priority 2021, published 2025).

Tested on: gene expression in D04 melanoma cells
Assay: RNA-Seq differential expression analysis (DESeq2)
Format: cell-based, human
Method: Total RNA was isolated using the RNeasy mini Kit (QIAGEN) following the manufacturer's protocol. Quality check for extracted RNA was done using 2100 Bioanalyzer (Agilent Technologies, USA) or Tapestation System (Agilent Technologies, USA). […] For samples used for identification of MAPK-responsive lncRNAs, paired-end, 101-bp sequencing was performed by Centrillion Genomic Services (Centrillion Biosciences, USA) on an Illumina HiSeq 2000. For DE gene analysis of ASO-transfected D04 samples, paired-end, 2×150-bp sequencing was performed by Genewiz (USA) on a Illumina HiSeq.
Sequence reads were aligned to the human genome (hg19) using TopHat (Version 2.0.11).
Differential expression (DE) analysis was done using DESeq2. Differentially expressed genes were defined by more than 1.5-fold changes (log 2 >0.58 or <−0.58) in expression with FDR<0.05. GO term analysis was done using DAVID Functional Annotation Clustering analysis.
To examine the biomolecular changes upon TRASH-inhibition in melanoma, D04 cells were treated with TRASH-ASOs (SEQ ID NO:15) and Control-ASOs and RNA was extracted and used for RNA-Seq. […] These GO terms consisted of genes encoding growth factors, tyrosine kinases, G protein coupled receptor subunits, and collagen subunits. Scatter plot diagram showing differential gene expression after TRASH-ASO treatment compared to Control-ASO treatment. (cut-off for significance was adjusted p-value <0.05). Data was obtained from RNA-Seq of D04 melanoma cells, treatment period was three days. (FIG. 5c)

[1] = D04 cells, three days, vs Control-ASO, cut off >1.5-fold change and FDR <0.05

Sequence: GACTGGAGATAATTAA (gapmer, pattern not given here) [SEQ ID NO: 15, GapmeR ASO targeting AC004540.4 (TRASH), exon region of both isoforms; used for in vitro experiments]
- log2FoldChange (CATSPERG (ENSG00000099338)): 1.259
- log2FoldChange (CCDC187 (ENSG00000260220)): 2.881
- log2FoldChange (CD274 (ENSG00000120217)): 1.226
- log2FoldChange (CD300C (ENSG00000167850)): 2.474
- log2FoldChange (CDH4 (ENSG00000179242)): 1.668
- log2FoldChange (CELF2 (ENSG00000048740)): −0.6612
- log2FoldChange (CFI (ENSG00000205403)): −0.6803
- log2FoldChange (CHCHD10 (ENSG00000250479)): −0.6153
- log2FoldChange (CHL1 (ENSG00000134121)): −0.6927
- log2FoldChange (CHMP1B2P (ENSG00000278530)): −0.6924
- log2FoldChange (CIITA (ENSG00000179583)): −0.6508
- log2FoldChange (CLDN3 (ENSG00000165215)): 1.402
- log2FoldChange (CNTN1 (ENSG00000018236)): −0.6103
- log2FoldChange (CNTNAP3B (ENSG00000154529)): −0.6749
- log2FoldChange (COL4A5 (ENSG00000188153)): −0.6293
- log2FoldChange (COL20A1 (ENSG00000101203)): 2.951
- log2FoldChange (COL27A1 (ENSG00000196739)): −0.6335
- log2FoldChange (COLGALT2 (ENSG00000198756)): −0.6617
- log2FoldChange (CREB3L3 (ENSG00000060566)): −0.704
- log2FoldChange (CREG2 (ENSG00000175874)): −0.6351
- log2FoldChange (CSF2RB (ENSG00000100368)): 3.672
- log2FoldChange (CSMD3 (ENSG00000164796)): −0.6823
- log2FoldChange (CX3CL1 (ENSG00000006210)): −0.5835
- log2FoldChange (CYP4F32P (ENSG00000223564)): −0.6527
- log2FoldChange (CYP27A1 (ENSG00000135929)): −0.625
- number of genes down-regulated [1]: 574 genes
- number of genes up-regulated [1]: 493 genes
- log2FoldChange (DAW1 (ENSG00000123977)): 2.338
- log2FoldChange (DBNDD1 (ENSG00000003249)): −0.6098
- log2FoldChange (DCAF8L2 (ENSG00000189186)): −0.6365
- log2FoldChange (DCLK1 (ENSG00000133083)): 2.001
- log2FoldChange (DHRS3 (ENSG00000162496)): −0.6585
- log2FoldChange (DHRS11 (ENSG00000278535)): −0.6876
- log2FoldChange (DLEU7 (ENSG00000186047)): 1.438
- log2FoldChange (DLG4 (ENSG00000132535)): −0.6697
- log2FoldChange (DLX1 (ENSG00000144355)): −0.6655
- log2FoldChange (DMPK (ENSG00000104936)): −0.6857
- log2FoldChange (DNAH6 (ENSG00000115423)): 1.798
- log2FoldChange (DNAH11 (ENSG00000105877)): 1.75
- log2FoldChange (DOK7 (ENSG00000175920)): 1.741
- log2FoldChange (DPF3 (ENSG00000205683)): 1.473
- log2FoldChange (DRGX (ENSG00000165606)): 1.312
- log2FoldChange (DYNC1I2 (ENSG00000077380)): −0.6997
- log2FoldChange (EMILIN1 (ENSG00000138080)): −0.6247
- log2FoldChange (ENO3 (ENSG00000108515)): −0.6026
- log2FoldChange (ENOX1 (ENSG00000120658)): −0.7019
- log2FoldChange (ENOX2 (ENSG00000165675)): −0.6448
- log2FoldChange KDM7A (ENSG00000006459, up-regulated list): 0.6751
- log2FoldChange CCL26 (ENSG00000006606, up-regulated list): 0.6667
- log2FoldChange BIRC3 (ENSG00000023445, up-regulated list): 0.9484
- log2FoldChange NEDD4L (ENSG00000049759, up-regulated list): 0.9476
- log2FoldChange SLC4A8 (ENSG00000050438, up-regulated list): 1.215
- log2FoldChange RRP12 (ENSG00000052749, up-regulated list): 0.614
- log2FoldChange MCF2L2 (ENSG00000053524, up-regulated list): 0.71
- log2FoldChange RASGRF1 (ENSG00000058335, up-regulated list): 1.152
- log2FoldChange MPC1 (ENSG00000060762, up-regulated list): 0.9395
- log2FoldChange GSTO2 (ENSG00000065621, up-regulated list): 0.6503
- log2FoldChange SPTB (ENSG00000070182, up-regulated list): 0.7656
- log2FoldChange ASNS (ENSG00000070669, up-regulated list): 0.7766
- log2FoldChange SLC6A15 (ENSG00000072041, up-regulated list): 0.8053
- log2FoldChange PPP2R3A (ENSG00000073711, up-regulated list): 0.6253
- log2FoldChange FSCN1 (ENSG00000075618, up-regulated list): 0.7766
- log2FoldChange ANKRD13A (ENSG00000076513, up-regulated list): 0.723
- log2FoldChange DCT (ENSG00000080166, up-regulated list): 0.9874
- log2FoldChange ATP8B1 (ENSG00000081923, up-regulated list): 0.9522
- log2FoldChange SERTAD4 (ENSG00000082497, up-regulated list): 0.7371
- log2FoldChange ABCB1 (ENSG00000085563, up-regulated list): 0.7955
- log2FoldChange HSD17B2 (ENSG00000086696, up-regulated list): 0.6195
- log2FoldChange LAT2 (ENSG00000086730, up-regulated list): 0.8215
- log2FoldChange PPP1R15A (ENSG00000087074, up-regulated list): 0.8007
- log2FoldChange LYZ (ENSG00000090382, up-regulated list): 0.9901
- log2FoldChange EPB41L4B (ENSG00000095203, up-regulated list): 1.165
- log2FoldChange TBC1D2 (ENSG00000095383, up-regulated list): 0.7709
- log2FoldChange IL11 (ENSG00000095752, up-regulated list): 1.064
- log2FoldChange DSP (ENSG00000096696, up-regulated list): 0.6307
- log2FoldChange MISP (ENSG00000099812, up-regulated list): 1.058
- log2FoldChange CDHR5 (ENSG00000099834, up-regulated list): 0.8144
- log2FoldChange GGT1 (ENSG00000100031, up-regulated list): 0.8806
- log2FoldChange IL2RB (ENSG00000100385, up-regulated list): 0.8537
- log2FoldChange DHRS2 (ENSG00000100867, up-regulated list): 0.8953
- log2FoldChange PYGB (ENSG00000100994, up-regulated list): 0.8557
- log2FoldChange SLCO4A1 (ENSG00000101187, up-regulated list): 1.202
- log2FoldChange LAMA1 (ENSG00000101680, up-regulated list): 0.7271
- log2FoldChange SYP (ENSG00000102003, up-regulated list): 1.211
- log2FoldChange NECAB2 (ENSG00000103154, up-regulated list): 0.9871
- log2FoldChange NDRG1 (ENSG00000104419, up-regulated list): 0.6175
- log2FoldChange TRMT1 (ENSG00000104907, up-regulated list): 0.655
